One may read the IC50 as the midpoint of a concentration-inhibition curve.

Where a name gives a salt, the structure may show the parent alone. Read-outs that look alike come from different tables or passages of the source. *1 amine or outer side, *2 acyl side, *3 side chain or, on linkers, in order; H or OH if unused. Where a SMILES comes first, the peptide text is derived from it. Side-chain parts run from the residue outwards. [ ]: non-standard residue; d: D form. The star is where a group is joined. ξ: configuration not given here. Propanoyl(3,3-Ph2) = O=C(CC(c1ccccc1)c1ccccc1)*; NMeW = CN[C@@H](Cc1c[nH]c2ccccc12)C(=O)O; ξαMeW = CC(N)(Cc1c[nH]c2ccccc12)C(=O)O; 1Nal = N[C@@H](Cc1cccc2ccccc12)C(=O)O; Butanoyl(3,3-Me2) = CC(C)(C)CC(=O)*; NMeF = CN[C@@H](Cc1ccccc1)C(=O)O; NMeD = CN[C@@H](CC(=O)O)C(=O)O; NH(2-Me-phenyl) = Cc1ccccc1N*; Suc = O=C(CCC(=O)[*:2])[*:1]; X5 = O=C(CCc1ccc(O)c(I)c1)*; PhAc = O=C(Cc1ccccc1)*; Boc = CC(C)(C)OC(=O)*; CO = O=C([*:1])[*:2]; Tfa = O=C(C(F)(F)F)*; Bz = O=C(c1ccccc1)*; NHPh = c1ccc(N*)cc1; Ms = CS(=O)(=O)*

One assay has as its target T1, Type-B CCK receptor (Cavia porcellus, UniProt H0VZC5).
T1 construct: Cortical and pancreatic membranes were prepared as described; from tissue; host or cells: guinea pig cerebral cortex membranes
T1 sequence (H0VZC5 1-426): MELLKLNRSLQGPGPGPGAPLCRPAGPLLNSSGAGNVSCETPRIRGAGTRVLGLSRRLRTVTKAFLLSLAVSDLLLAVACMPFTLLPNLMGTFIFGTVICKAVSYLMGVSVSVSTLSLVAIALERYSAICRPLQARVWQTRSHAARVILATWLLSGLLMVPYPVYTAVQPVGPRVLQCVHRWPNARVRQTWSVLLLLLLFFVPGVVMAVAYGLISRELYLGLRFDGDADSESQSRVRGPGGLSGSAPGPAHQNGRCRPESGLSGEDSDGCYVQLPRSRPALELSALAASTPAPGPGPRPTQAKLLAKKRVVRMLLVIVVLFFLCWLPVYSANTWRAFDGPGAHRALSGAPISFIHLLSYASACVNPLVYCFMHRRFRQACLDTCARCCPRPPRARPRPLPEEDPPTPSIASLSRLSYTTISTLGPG
Briefly: Radioligand binding of [125I]BH-CCK-8 in guinea pig cerebral cortical membrane preparations. The procedure, abridged:
(§1)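 Membranes came from male guinea pig pancreas (type A) or cerebral cortex (type B) and were resuspended in pH 7.4 HEPES-EGTA-salt buffer containing bestatin and phosphoramidon. Test compounds competed with [125I]BH-CCK-8 in 0.1% BSA: cortex 150 min at 30 °C, pancreas 150 min at 37 °C. Reactions ended by filtration; IC50 from Hill analysis.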

The target in a further assay is T2, Type-A CCK receptor (Cavia porcellus, UniProt Q63931).
T2 construct: Cortical and pancreatic membranes were prepared as described; from tissue; host or cells: guinea pig pancreas membranes
T2 sequence (Q63931 1-430): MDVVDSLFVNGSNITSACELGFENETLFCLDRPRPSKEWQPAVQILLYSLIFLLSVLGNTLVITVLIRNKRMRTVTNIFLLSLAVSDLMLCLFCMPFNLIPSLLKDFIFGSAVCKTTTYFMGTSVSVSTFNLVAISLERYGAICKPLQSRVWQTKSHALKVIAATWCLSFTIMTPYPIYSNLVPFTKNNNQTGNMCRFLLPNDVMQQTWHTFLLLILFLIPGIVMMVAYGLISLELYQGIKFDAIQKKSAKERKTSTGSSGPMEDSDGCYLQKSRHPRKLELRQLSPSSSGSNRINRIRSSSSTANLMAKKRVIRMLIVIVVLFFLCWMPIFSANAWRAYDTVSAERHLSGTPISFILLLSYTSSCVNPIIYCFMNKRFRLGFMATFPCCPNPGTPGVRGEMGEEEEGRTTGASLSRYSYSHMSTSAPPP
As to the kind of experiment: Radioligand binding of [125I]BH-CCK-8 in guinea pig pancreatic membrane preparations. The method in brief:
as §1

[1] abbreviates: IC50 (nM) 125I-BH-CCK-8 Type-B receptor, guinea pig cortical membranes, 30° C., 150 minutes.
Where [2] appears, read: IC50 (nM) 125I-BH-CCK-8 Type-A receptor, guinea pig pancreatic membranes, 37° C., 150 min.
Where [3] appears, read: guinea pig cortical membranes, 30° C., 150 minutes, read-out: IC50 (nM) 125I-BH-CCK-8 Type-B receptor.
Setting [4] is: guinea pig pancreatic membranes, 37° C., 150 min, read-out: IC50 (nM) 125I-BH-CCK-8 Type-A receptor.

In the case of `CNC(=O)N[C@@H](Cc1c[nH]c2ccccc12)C(=O)N[C@@H](CCCCNC(=O)Nc1ccccc1C)C(=O)N[C@@H](CC(=O)O)C(=O)N(C)[C@@H](Cc1ccccc1)C(N)=O` [Example 83, Methylaminocarbonyl-Trp-Lys(ε-N-(2-methylphenyl)aminocarbonyl)-Asp-(NMe)PheNH2] ({NHMe-CO}-WK([CO-NH(2-Me-phenyl)])D[NMeF]-NH2), the IC50 came to 4900 nM at Type-B CCK receptor (setting [1]) and 9.7 nM at Type-A CCK receptor (setting [2]).
For `Cc1ccccc1NC(=O)NCCCC[C@H](NC(=O)[C@H](Cc1c[nH]c2ccccc12)NC(=O)Nc1ccccc1)C(=O)N[C@@H](CC(=O)O)C(=O)N(C)[C@@H](Cc1ccccc1)C(N)=O` [Example 84, Phenylaminocarbonyl-Trp-Lys(ε-N-(2-methylphenyl)aminocarbonyl)-Asp-(NMe)PheNH2] ({NHPh-CO}-WK([CO-NH(2-Me-phenyl)])D[NMeF]-NH2), in that order: 3000 nM and 3 nM.
For `CC(=O)N[C@@H](Cc1c[nH]c2ccccc12)C(=O)N[C@@H](CCCCNC(=O)Nc1ccccc1C)C(=O)N[C@@H](CC(=O)O)C(=O)N(C)[C@@H](Cc1ccccc1)C(N)=O` [Example 85, Acetyl-Trp-Lys(ε-N-(2-methylphenyl)aminocarbonyl)-Asp-(NMe)PheNH2] (Ac-WK([CO-NH(2-Me-phenyl)])D[NMeF]-NH2), in that order: 10000 nM and 5.8 nM.
Regarding `CC(=O)N[C@@H](Cc1c[nH]c2ccccc12)C(=O)N[C@@H](CCCCNC(=O)Nc1ccccc1C)C(=O)N(C)[C@@H](CC(=O)O)C(=O)N[C@@H](Cc1ccccc1)C(N)=O` [Example 86, Acetyl-Trp-Lys(ε-N-(2-methylphenyl)aminocarbonyl)-(NMe)Asp-PheNH2] (Ac-WK([CO-NH(2-Me-phenyl)])[NMeD]F-NH2), the IC50 on Type-B CCK receptor (setting [1]) was over 10000 nM; at Type-A CCK receptor (setting [2]) it was 6.7 nM.
For `Cc1ccccc1NC(=O)NCCCC[C@H](NC(=O)[C@H](Cc1c[nH]c2ccccc12)NC(=O)CC(C)(C)C)C(=O)N[C@@H](CC(=O)O)C(=O)N(C)[C@@H](Cc1ccccc1)C(N)=O` [Example 87, t-Butylacetyl-Trp-Lys(ε-N-(2-methylphenyl)aminocarbonyl)-Asp-(NMe)PheNH2] ({Butanoyl(3,3-Me2)}-WK([CO-NH(2-Me-phenyl)])D[NMeF]-NH2), in that order: 8400 nM and 4.5 nM.
For `Cc1ccccc1NC(=O)NCCCC[C@H](NC(=O)[C@H](Cc1c[nH]c2ccccc12)NC(=O)C(F)(F)F)C(=O)N(C)[C@@H](CC(=O)O)C(=O)N[C@@H](Cc1ccccc1)C(N)=O` [Example 88A, trifluoroacetyl-Trp-Lys(ε-N-(2-methylphenyl)aminocarbonyl)-(NMe)Asp-PheNH2] (Tfa-WK([CO-NH(2-Me-phenyl)])[NMeD]F-NH2), in that order: over 10000 nM and 4.4 nM.
For `Cc1ccccc1NC(=O)NCCCC[C@H](NC(=O)[C@H](Cc1c[nH]c2ccccc12)NC(=O)CC(C)(C)C)C(=O)N(C)[C@@H](CC(=O)O)C(=O)N[C@@H](Cc1ccccc1)C(N)=O` [Example 88B, t-butylacetyl-Trp-Lys(ε-N-(2-methylphenyl)aminocarbonyl)-(NMe)Asp-PheNH2] ({Butanoyl(3,3-Me2)}-WK([CO-NH(2-Me-phenyl)])[NMeD]F-NH2), in that order: over 10000 nM and 3.7 nM.
For `Cc1ccccc1NC(=O)NCCCC[C@H](NC(=O)[C@H](Cc1c[nH]c2ccccc12)NC(=O)c1ccccc1)C(=O)N[C@@H](CC(=O)O)C(=O)N(C)[C@@H](Cc1ccccc1)C(N)=O` [Example 89, Benzoyl-Trp-Lys(ε-N-(2-methylphenyl)aminocarbonyl)-Asp-(NMe)PheNH2] (Bz-WK([CO-NH(2-Me-phenyl)])D[NMeF]-NH2), the IC50 at Type-B CCK receptor (setting [1]) worked out at 4600 nM; on Type-A CCK receptor (setting [2]), 1.8 nM.
With `Cc1ccccc1NC(=O)NCCCC[C@H](NC(=O)[C@H](Cc1c[nH]c2ccccc12)NC(=O)c1ccccc1)C(=O)N(C)[C@@H](CC(=O)O)C(=O)N[C@@H](Cc1ccccc1)C(N)=O` [Example 90, Benzoyl-Trp-Lys(ε-N-(2-methylphenyl)aminocarbonyl)-(NMe)Asp-PheNH2] (Bz-WK([CO-NH(2-Me-phenyl)])[NMeD]F-NH2), the IC50 at Type-B CCK receptor (setting [1]) is 5100 nM; at Type-A CCK receptor (setting [2]), 2.7 nM.
In the case of `Cc1ccccc1NC(=O)NCCCC[C@H](NC(=O)[C@H](Cc1c[nH]c2ccccc12)NC(=O)Cc1ccccc1)C(=O)N[C@@H](CC(=O)O)C(=O)N(C)[C@@H](Cc1ccccc1)C(N)=O` [Example 91, Phenylacetyl-Trp-Lys(ε-N-(2-methylphenyl)aminocarbonyl)-Asp-(NMe)PheNH2] (PhAc-WK([CO-NH(2-Me-phenyl)])D[NMeF]-NH2), the values for the IC50 on Type-B CCK receptor (setting [1]) and on Type-A CCK receptor (setting [2]) were over 10000 nM and 19 nM, respectively.
Take `Cc1ccccc1NC(=O)NCCCC[C@H](NC(=O)[C@H](Cc1c[nH]c2ccccc12)NC(=O)CC(c1ccccc1)c1ccccc1)C(=O)N[C@@H](CC(=O)O)C(=O)N(C)[C@@H](Cc1ccccc1)C(N)=O` [Example 92, (3,3-Diphenylpropionyl)-Trp-Lys(ε-N-(2-methylphenyl)aminocarbonyl)-Asp-(NMe)PheNH2] ({Propanoyl(3,3-Ph2)}-WK([CO-NH(2-Me-phenyl)])D[NMeF]-NH2): the IC50 turned out to be 5000 nM at Type-B CCK receptor and 5.6 nM at Type-A CCK receptor.
For `Cc1ccccc1NC(=O)NCCCC[C@H](NC(=O)[C@H](Cc1c[nH]c2ccccc12)NC(=O)CCc1ccc(O)c(I)c1)C(=O)N[C@@H](CC(=O)O)C(=O)N(C)[C@@H](Cc1ccccc1)C(N)=O` [Example 93, (3-(4-Hydroxy-3-iodophenyl)propionyl)-Trp-Lys(ε-N-(2-methylphenyl)aminocarbonyl)-Asp-(NMe)PheNH2] (X5-WK([CO-NH(2-Me-phenyl)])D[NMeF]-NH2), in that order: 4200 nM and 4.6 nM.
For `Cc1ccccc1NC(=O)NCCCC[C@H](NC(=O)[C@H](Cc1c[nH]c2ccccc12)NC(=O)CCC(=O)O)C(=O)N[C@@H](CC(=O)O)C(=O)N(C)[C@@H](Cc1ccccc1)C(N)=O` [Example 94, (3-Carboxylpropionyl)-Trp-Lys(ε-N-(2-methylphenyl)aminocarbonyl)-Asp-(NMe)PheNH2] (Suc-WK([CO-NH(2-Me-phenyl)])D[NMeF]-NH2), in that order: 5600 nM and 16 nM.
Take `Cc1ccccc1NC(=O)NCCCC[C@H](NC(=O)[C@H](Cc1c[nH]c2ccccc12)NS(C)(=O)=O)C(=O)N[C@@H](CC(=O)O)C(=O)N(C)[C@@H](Cc1ccccc1)C(N)=O` [Example 95, Methylsufonamyl-Trp-Lys(ε-N-(2-methylphenyl)aminocarbonyl)-Asp-(NMe)PheNH2] (Ms-WK([CO-NH(2-Me-phenyl)])D[NMeF]-NH2): the IC50 is over 10000 nM at Type-B CCK receptor (setting [3]) and 47 nM on Type-A CCK receptor (setting [4]).
Consider `Cc1ccccc1NC(=O)NCCCC[C@H](NC(=O)C(C)(Cc1c[nH]c2ccccc12)NC(=O)OC(C)(C)C)C(=O)N[C@@H](CC(=O)O)C(=O)N[C@@H](Cc1ccccc1)C(N)=O` (stereo partly drawn) [Example 96, t-BOC-D,L-(α-methyl)Trp-Lys(ε-N-(2-methylphenyl)aminocarbonyl)-Asp-PheNH2] (Boc-[ξαMeW]K([CO-NH(2-Me-phenyl)])DF-NH2), for which the IC50 on Type-B CCK receptor (setting [1]) came to 9300 nM; at Type-A CCK receptor (setting [2]) it was 16 nM.
For `CN[C@@H](Cc1c[nH]c2ccccc12)C(=O)N[C@@H](CCCCNC(=O)Nc1ccccc1C)C(=O)N(C)[C@@H](CC(=O)O)C(=O)N[C@@H](Cc1cccc2ccccc12)C(N)=O` [Example 100, (NMe)Trp-Lys(ε-N-(2-methylphenyl)aminocarbonyl)-(NMe)Asp-α-NalNH2] (H-[NMeW]K([CO-NH(2-Me-phenyl)])[NMeD][1Nal]-NH2), in that order: 12000 nM and 8 nM.
For `CN[C@@H](Cc1c[nH]c2ccccc12)C(=O)N[C@@H](CCCCNC(=O)Nc1ccccc1C)C(=O)N[C@@H](CC(=O)O)C(=O)N(C)[C@@H](Cc1ccccc1)C(N)=O` [Example 101, (NMe)Trp-Lys(ε-N-(2-methylphenyl)aminocarbonyl)-Asp-(NMe)PheNH2] (H-[NMeW]K([CO-NH(2-Me-phenyl)])D[NMeF]-NH2), in that order: 12000 nM and 9.3 nM.
For the molecule `Cc1ccccc1NC(=O)NCCCC[C@H](NC(=O)CCc1c[nH]c2ccccc12)C(=O)N(C)[C@@H](CC(=O)O)C(=O)N(C)[C@@H](Cc1ccccc1)C(N)=O` [Example 102], the IC50 at Type-B CCK receptor (setting [3]) amounted to 2500 nM; on Type-A CCK receptor (setting [4]) it was 14 nM.
